“Also recorded” adds a separate entry of the source.
Assays:
[1] = test system: eye of a presbyopic myope; experiment: Hartinger refractometry at distance and near after one topical drop, myopic presbyope; assay type: in vivo, human; conditions: for Mean Refraction, Near OS: +1.50 sphere in the right eye for near fixation; for Mean Refraction, Near OD: +1.75 sphere in the left eye for near fixation
Description: (§1) This clinical study was designed to evaluate the effect of a low dose muscarinic agent such as Pilocarpine from 0.001% to less than 2% by weight values on the refractive status of the eye.
(§2) One drop of Pilocarpine 0.3% was administered topically to the eye of a presbyopic myope and hyperope, before and after Hartinger Refractometry at distance and near was performed by the same observer.
(§3) Refraction at distance and near was performed with the Hartinger Refractomer by the same observer prior to installation of Pilcarpine 0.3%. Three measurements were taken at distance and at near for each eye tested at each timepoint.
(§4) In the myopic presbyope, both eyes received Piolcarpine 0.3%. In the hyperopic presbyope, only the right eye received Pilocarpine 0.3%.
(§5) At approximately 30-50 and 60-90 minutes post installation of Pilocarpine, refraction measurements were repeated.

[2] = test system: eye of a presbyopic hyperope; experiment: Hartinger refractometry at distance and near after one topical drop, hyperopic presbyope; assay type: in vivo, human
Description: as §1, §2, §3, §4, §5

pupil size = experiment: Observation of pupil size in the refractometry study; assay type: in vivo, human; conditions: after one topical drop, myopic and hyperopic presbyope
[3] = test system: eye of a human adult with presbyopia; experiment: Eye drop formulation given to a human adult with presbyopia; assay type: in vivo; conditions: 0.1% weight/volume in base solution pH 6.4, human adult with presbyopia
Description: In a specific example of this invention, a base solution can be formulated as follows: Sodium Chloride 0.3%; Edetate Disodium 0.1%; Boric Acid 1.0%; Benzaliconium Chloride 0.01% Sodium Hydroxide (adjust to pH 6.4) and Water. Pilocarpine, at a concentration of 0.1% weight/volume, is added to the base solution. The above formulation is administered to the eye of a human adult with presbyopia, shown by their discomfort when reading, or their inability to read fine print.

[4] = test system: eye of a presbyopic myope; experiment: Hartinger refractometry at distance and near after one topical drop, myopic presbyope; assay type: in vivo, human; conditions: single measurements, time point printed '30 min, 3:45 pm'

CC[C@@H]1C(=O)OC[C@@H]1Cc1cncn1C [Pilocarpine 0.3%, Pilocarpine]
change in distance and near myopic correction ([1]; 30 and 60 minutes post dosing): small but definite decrease in the distance and near myopic correction which was greater at 60 than 30 minutes post dosing
Mean Refraction, Distance OD ([1]; 30 min post instillation): −1.06 diopters
Mean Refraction, Near OS ([1]; 30 min post instillation): −1.53 diopters
Mean Refraction, Near OD ([1]; 30 min post instillation): −1.8 diopters
Mean Refraction, Distance OD ([1]; 60 min post instillation): −1.05 diopters
Mean Refraction, Distance OS ([1]; 60 min post instillation): −1.25 diopters
Mean Refraction, Near OS ([1]; 60 min post instillation): −0.95 diopters
Mean Refraction, Near OD ([1]; 60 min post instillation): −1.5 diopters
Mean Refraction, Distance OD ([2]; 50 min post instillation): +1.15 diopters
Mean Refraction, Near OD ([2]; 50 min post instillation, +2.5 sphere in the left eye for near fixation): +0.17 diopters
Mean Refraction, Distance OD ([2]; 90 min post instillation): +0.42 diopters
Mean Refraction, Near OD ([2]; 90 min post instillation, +2.50 sphere in the left eye for near fixation): +0.38 diopters
change in distance and near hyperopic correction ([2]; 90 minutes post dosing): small but definite decrease in the distance and near hyperopic correction
change in pupil size (pupil size): no notable change in pupil size; also recorded: no observable effect on pupil size
vision after administration of the eye drops [3]: Vision is improved
Refraction, Distance OS [4]: −1.25 diopters
Refraction, Near OD [4]: −1.5 diopters

Reference: patent publication US6410544B1, “Cholinergic agents in the treatment of presbyopia” (Allergan Sales, Inc., priority 1998, dated 2002)
